Literature values in publication PMC10721329, “Quisinostat is a brain-penetrant radiosensitizer in glioblastoma” (JCI Insight, 2023).

Conditions: human, in vivo; cited from earlier work

SMILES: Cc1[nH]c2ccccc2c1CCNCc1ccc(/C=C/C(=O)NO)cc1 [panobinostat]
- hematologic toxicities compared with QST: far more common and severe (grade 3 and 4)
